IC50 data for 13 compounds are collected here from ChEMBL document CHEMBL3217554, “Fast and effective identification of the bioactive compounds and their targets from medicinal plants via computational chemical biology approach” (Medchemcomm, 2011).

The assay deals with Dipeptidyl peptidase 4 (Homo sapiens, UniProt P27487). In words: Inhibition of human DPP4 using H-Gly-Pro-AMC peptide substrate assessed as increase in fluorescence for 20 mins by fluorimetric assay.
Sequence of Dipeptidyl peptidase 4 (P27487 whole entry): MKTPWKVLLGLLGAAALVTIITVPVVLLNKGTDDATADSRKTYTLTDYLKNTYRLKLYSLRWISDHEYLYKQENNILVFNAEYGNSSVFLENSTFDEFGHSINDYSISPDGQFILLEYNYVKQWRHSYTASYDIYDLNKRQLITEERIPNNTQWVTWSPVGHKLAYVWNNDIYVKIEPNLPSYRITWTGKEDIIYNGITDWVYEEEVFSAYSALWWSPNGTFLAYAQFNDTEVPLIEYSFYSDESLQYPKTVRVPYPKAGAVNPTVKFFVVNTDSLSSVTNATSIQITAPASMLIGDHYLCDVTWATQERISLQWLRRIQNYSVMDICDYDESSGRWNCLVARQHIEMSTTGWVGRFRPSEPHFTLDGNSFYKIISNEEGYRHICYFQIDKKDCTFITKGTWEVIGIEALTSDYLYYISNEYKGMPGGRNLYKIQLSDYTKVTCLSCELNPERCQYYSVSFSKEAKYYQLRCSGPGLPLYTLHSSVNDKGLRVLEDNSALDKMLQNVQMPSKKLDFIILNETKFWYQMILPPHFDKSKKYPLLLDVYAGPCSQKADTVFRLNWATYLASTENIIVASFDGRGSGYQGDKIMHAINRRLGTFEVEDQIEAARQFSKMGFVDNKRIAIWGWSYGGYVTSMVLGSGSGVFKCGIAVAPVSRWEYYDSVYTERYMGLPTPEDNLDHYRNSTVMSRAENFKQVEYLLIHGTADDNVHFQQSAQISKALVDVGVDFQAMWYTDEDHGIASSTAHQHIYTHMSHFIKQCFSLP
Regarding `O=C(CC(O)CCc1ccccc1)c1ccc(O)cc1` (stereo not drawn), the IC50 is 38.4 µM.
The figure for `COC(=O)C1(O)CC(O)C(O)C(OC(=O)/C=C/c2ccc(O)c(O)c2)C1` (stereo not drawn) is 41.4 µM.
The figure for `CCOC(=O)c1c(O)cc(O)c2c1OC(c1ccc(O)cc1)CC2` (stereo not drawn) is 114 µM; for `CC[C@H](CC[C@@H](C)[C@H]1CC[C@H]2[C@@H]3CC=C4C[C@@H](O)CC[C@]4(C)[C@H]3CC[C@]12C)C(C)C` [BETA-SITOSTEROL] it is 28.8 µM.
The figure for `C=C(C)[C@@H]1CC[C@]2(C(=O)O)CC[C@]3(C)[C@H](CC[C@@H]4[C@@]5(C)CC[C@H](O)C(C)(C)[C@@H]5CC[C@]43C)[C@@H]12` [BETULINIC ACID] is 55.8 µM; for `O=C(O)/C=C/c1ccc(O)cc1` [COUMARIC ACID] it is 83.2 µM.
`COc1cc2cc(Oc3ccc4ccc(=O)oc4c3)c(=O)oc2cc1O` [DAPHNORETIN]: the IC50 stood at 87.1 µM.
In the case of `COc1ccc2c(c1OC)CN(C)c1c-2ccc2cc3c(cc12)OCO3` [DIHYDROCHELERYTHRINE], the IC50 worked out at 56.2 µM.
As for `CCOC(=O)/C=C/c1ccc(O)c(O)c1` [ETHYL CAFFEATE], the figure is 87.7 µM.
The figure for `COc1cc(O)c(C(=O)/C=C/c2ccc(O)cc2)c(OC)c1` [FLAVOKAWAIN C] is 33.1 µM.
In the case of `O=C(/C=C/c1ccc(O[C@@H]2O[C@H](CO)[C@@H](O)[C@H](O)[C@H]2O)cc1)c1ccc(O)cc1O` [ISOLIQUIRITIN], the half-maximal inhibitory concentration (IC50) turned out to be 26.9 µM.
The figure for `O=c1c(O)c(-c2cc(O)c(O)c(O)c2)oc2cc(O)cc(O)c12` [MYRICETIN] is 37.1 µM.
The figure for `O=c1c(O)c(-c2ccc(O)c(O)c2)oc2cc(O)cc(O)c12` [QUERCETIN] is 32.7 µM.
